For data set [1] the following is noted: background statement, in words; cited from earlier work.
A short description of data set [2]: Solubility at room temperature. Format: physicochemical. Particulars: for Solubility, Acetone: in words. How it is done: Then, solubility at room temperature of the resulting compound is measured.

Where only a bound is given, the exact number is not on record here.

On to C.I. Solvent Blue-70, for which the “solubility in an organic solvent” value in data set [1] is “soluble in an organic solvent”.

Consider “Tetrasulfonic acid copper phthalocyanine [C.I. Acid Blue-249]”, for which the water-solubility entry in data set [1] was “insufficient”.

“tetrakis(sulfobenzamide) copper naphthalocyanine [Example 5]”: in data set [2], the “Solubility, DMF” value is reported as greater than 2.0%; the “Solubility, Acetone” value is reported as “insoluble”; the “Solubility, Dilute aqueous alkaline solution” value is less than 1.5%; the “Solubility, Methanol” value is less than 0.1%.

Take “tetrakis(sulfobenzamide) copper phthalocyanine [Example 1]”: in data set [2], the “Solubility, Acetone” value is “insoluble”; the “Solubility, Methanol” value is greater than 5%; the “Solubility, Water” value was greater than 10%.

Consider “tetrakis(sulfobenzamide) nickel naphthalocyanine [Example 4]”, for which, in data set [2], the “Solubility, DMF” value is given as greater than 2.0%; the “Solubility, Acetone” value is on record as “insoluble”; the “Solubility, Dilute aqueous alkaline solution” value is less than 1.5%; the “Solubility, Methanol” value is given as less than 0.1%.

As for “tetrakis(sulfobenzamide) phthalocyanine [Example 2]”, in data set [2], the “Solubility, Acetone” value is listed as “insoluble”; the “Solubility, Methanol” value was greater than 5%; the “Solubility, Water” value was greater than 10%.

The record behind these values is patent US5739319A, “Phthalocyanine or naphthalocyanine derivative” (Orient Chemical Industries, Ltd., priority 1995, dated 1998).
